Results on four cell lines are retold here after the supplement of paper PMC10307832.

Assay in all cases: relative viability (nuclei count vs DMSO), 5 days (fraction); higher = more cells survive
Compound in one assay: COC1=C(C=C(C=C1)C2=CC3=NC=CN3C(=N2)NC4=C(C=CC=N4)C(=O)N)OC [BAY61-3606]
In a few lines: (§1)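 Cells of lung cancer lines were placed in 1536-well plates and kept overnight at 37 °C. Pinning then delivered five library-drug doses (not always all listed), spaced by √10, onto plates anchored with vehicle, and the cells were left 5 days without changing medium. One step fixed, permeabilised and stained them with Hoechst, and MetaXpress counted nuclei in 4× images. Viability, as a median over plates, is treated-well nuclei divided by vehicle-well nuclei, with acceptance only at control CV below 25% and at least one doubling.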

Compound in the next assay: COc1cccc2c1C(=O)c1c(O)c3c(c(O)c1C2=O)C[C@@](O)(C(=O)CO)C[C@@H]3O[C@H]1C[C@H](N)[C@H](O)[C@H](C)O1 [Doxorubicin]
In outline:
as §1

Compound in the assay “Doxorubicin + Navitoclax”: COc1cccc2c1C(=O)c1c(O)c3c(c(O)c1C2=O)C[C@@](O)(C(=O)CO)C[C@@H]3O[C@H]1C[C@H](N)[C@H](O)[C@H](C)O1 [Doxorubicin] + CC1(C)CCC(c2ccc(Cl)cc2)=C(CN2CCN(c3ccc(C(=O)NS(=O)(=O)c4ccc(N[C@H](CCN5CCOCC5)CSc5ccccc5)c(S(=O)(=O)C(F)(F)F)c4)cc3)CC2)C1 [Navitoclax] (partner 0.5 µM)
In outline:
(§2)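 Relative viability equals treated-well nuclei counts divided by vehicle-well nuclei counts. Counts came from 4× images of lung cancer cell lines grown in 1536-well plates for 5 days after pin-tool dosing on the day after seeding. Dosing used one drug alone or a fixed anchor-drug dose plus five library-drug doses (not always all listed) in √10 steps, and values are medians of duplicate plates.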

Compound in the assay “BAY61-3606 + Trametinib”: COC1=C(C=C(C=C1)C2=CC3=NC=CN3C(=N2)NC4=C(C=CC=N4)C(=O)N)OC [BAY61-3606] + CC(=O)Nc1cccc(-n2c(=O)n(C3CC3)c(=O)c3c(Nc4ccc(I)cc4F)n(C)c(=O)c(C)c32)c1 [Trametinib] (partner 0.02 µM)
In outline: as §2

For the cell line EPLC-272H, the relative viability was found to be 1.02 with BAY61-3606 (0.02 µM); 1.05 with BAY61-3606 (0.06325 µM); 0.894 with BAY61-3606 (0.2 µM); 0.873 with BAY61-3606 (0.6325 µM); 0.729 in the assay with BAY61-3606 (2 µM); 0.84 in the assay with Doxorubicin (0.001 µM). Besides, the relative viability in the assay with Doxorubicin (0.003162 µM) stood at 0.949; in the assay with Doxorubicin (0.01 µM), 0.932; with Doxorubicin (0.03162 µM), 0.792; with Doxorubicin (0.1 µM), 0.964; with Doxorubicin + Navitoclax (first compound 0.001 µM) it was 1.11; with Doxorubicin + Navitoclax (first compound 0.003162 µM), 1.37. Further, the relative viability is 0.971 with Doxorubicin + Navitoclax (first compound 0.01 µM); 1.11 in the assay with Doxorubicin + Navitoclax (first compound 0.03162 µM); 1.05 in the assay with Doxorubicin + Navitoclax (first compound 0.1 µM); 0.309 in the assay with BAY61-3606 + Trametinib (first compound 0.02 µM); 0.275 with BAY61-3606 + Trametinib (first compound 0.06325 µM); 0.281 in the assay with BAY61-3606 + Trametinib (first compound 0.2 µM). For the same cell line, the relative viability in the assay with BAY61-3606 + Trametinib (first compound 0.6325 µM) was determined as 0.294; in the assay with BAY61-3606 + Trametinib (first compound 2 µM), 0.263.
For NCI-H1975, the relative viability with BAY61-3606 (0.02 µM) stood at 0.958; with BAY61-3606 (0.06325 µM), 0.964; with BAY61-3606 (0.2 µM) it was 0.913; in the assay with BAY61-3606 (0.6325 µM), 0.874; with BAY61-3606 (2 µM) it was 0.668; with Doxorubicin (0.001 µM), 1.02. In addition, the relative viability in the assay with Doxorubicin (0.003162 µM) was 0.985; with Doxorubicin (0.01 µM), 0.951; in the assay with Doxorubicin (0.03162 µM), 0.778; in the assay with Doxorubicin (0.1 µM) it was 0.518; in the assay with Doxorubicin + Navitoclax (first compound 0.001 µM) it was 1.2; with Doxorubicin + Navitoclax (first compound 0.003162 µM), 1.22. Moreover, the relative viability amounted to 1.06 with Doxorubicin + Navitoclax (first compound 0.01 µM); 0.791 in the assay with Doxorubicin + Navitoclax (first compound 0.03162 µM); 0.569 with Doxorubicin + Navitoclax (first compound 0.1 µM); 0.409 in the assay with BAY61-3606 + Trametinib (first compound 0.02 µM); 0.295 with BAY61-3606 + Trametinib (first compound 0.06325 µM); 0.354 in the assay with BAY61-3606 + Trametinib (first compound 0.2 µM). Moreover, the relative viability came to 0.325 with BAY61-3606 + Trametinib (first compound 0.6325 µM) and 0.254 with BAY61-3606 + Trametinib (first compound 2 µM).
As for NCI-H322M, the relative viability with BAY61-3606 (0.02 µM) is 1.04; in the assay with BAY61-3606 (0.06325 µM), 0.919; with BAY61-3606 (0.2 µM), 1; with BAY61-3606 (0.6325 µM), 0.921; with BAY61-3606 (2 µM), 0.843; with Doxorubicin (0.001 µM), 1. Moreover, the relative viability in the assay with Doxorubicin (0.003162 µM) worked out at 0.887; in the assay with Doxorubicin (0.01 µM), 0.976; in the assay with Doxorubicin (0.03162 µM), 0.904; with Doxorubicin (0.1 µM), 0.568; in the assay with Doxorubicin + Navitoclax (first compound 0.001 µM) it was 1.18; with Doxorubicin + Navitoclax (first compound 0.003162 µM) it was 1.19. The relative viability with Doxorubicin + Navitoclax (first compound 0.01 µM) came out at 1.15; in the assay with Doxorubicin + Navitoclax (first compound 0.03162 µM), 1.31; with Doxorubicin + Navitoclax (first compound 0.1 µM), 1.26; with BAY61-3606 + Trametinib (first compound 0.02 µM), 0.533; with BAY61-3606 + Trametinib (first compound 0.06325 µM) it was 0.522; in the assay with BAY61-3606 + Trametinib (first compound 0.2 µM), 0.542. Also, the relative viability with BAY61-3606 + Trametinib (first compound 0.6325 µM) came out at 0.499; with BAY61-3606 + Trametinib (first compound 2 µM), 0.486.
Consider NCI-H520, for which the relative viability with BAY61-3606 (0.02 µM) is 1.07; with BAY61-3606 (0.06325 µM), 1.06; in the assay with BAY61-3606 (0.2 µM), 1.07; with BAY61-3606 (0.6325 µM), 1.12; with BAY61-3606 (2 µM) it was 1.05; with Doxorubicin (0.001 µM), 0.901. Besides, the relative viability with Doxorubicin (0.003162 µM) is 1.03; with Doxorubicin (0.01 µM), 0.939; with Doxorubicin (0.03162 µM) it was 0.799; with Doxorubicin (0.1 µM), 0.822; with Doxorubicin + Navitoclax (first compound 0.001 µM), 1.06; in the assay with Doxorubicin + Navitoclax (first compound 0.003162 µM) it was 1.29. Also, the relative viability is 1.02 with Doxorubicin + Navitoclax (first compound 0.01 µM); 0.886 with Doxorubicin + Navitoclax (first compound 0.03162 µM); 1 in the assay with Doxorubicin + Navitoclax (first compound 0.1 µM); 0.685 in the assay with BAY61-3606 + Trametinib (first compound 0.02 µM); 0.704 with BAY61-3606 + Trametinib (first compound 0.06325 µM); 0.751 with BAY61-3606 + Trametinib (first compound 0.2 µM). Further, the results for the relative viability with BAY61-3606 + Trametinib (first compound 0.6325 µM) and in the assay with BAY61-3606 + Trametinib (first compound 2 µM) were 0.85 and 0.644, respectively.
